Measured values taken from patent US11345702B1 (Myoforte Therapeutics, Inc., priority 2020, dated 2022).

Biological target: 15-PGDH/HPGD (Homo sapiens (Human), UniProt P15428)
Test: hPGDH inhibitor screening biochemical assay
Conditions: read-out: hPGDH: Average IC50
Method: A hydroxyprostaglandin dehydrogenase inhibition screening biochemical assay can be performed to assess the synthesized inhibitors provided herein. Provided herein is an exemplary biochemical assay for hPGDH inhibitor screening.
The in vitro biochemical assay can be performed in white, 384 plates in total 20 μl reaction volume consisting of 10 nM of 15-PGDH/HPGD (R&D System #5660-DH), 15 μM Prostaglandin E2 (Sigma, Cat #P5640-10MG) and 0.25 mM (3-Nicotinamide adenine dinucleotide sodium salt (Sigma, Cat #N0632-5G) made in reaction buffer (50 mM Tris-HCl, pH 7.5, 0.01% Tween 20) at 10-point dose response curve for test/tool compounds. Briefly, 5 μl (4×) of compounds solution and 5 μl (final concentration, 10 nM) of enzyme solution is added to white 384 well plates and incubated for 10 mins at 37° C. 5 μl (4×) of Prostaglandin E2 and 5 μl (4×) of β-Nicotinamide adenine dinucleotide sodium salt is added to the wells and incubated for 10 mins at room temperature. Fluorescence is recorded at ex/em=340 nm/485 nm. The percentage (%) inhibition of enzyme activity was determined relative to positive control (1% DMSO) and IC50 was calculated using GraphPad prism software (four parameter-variable slope equation).

Sequence of 15-PGDH/HPGD (P15428 whole entry): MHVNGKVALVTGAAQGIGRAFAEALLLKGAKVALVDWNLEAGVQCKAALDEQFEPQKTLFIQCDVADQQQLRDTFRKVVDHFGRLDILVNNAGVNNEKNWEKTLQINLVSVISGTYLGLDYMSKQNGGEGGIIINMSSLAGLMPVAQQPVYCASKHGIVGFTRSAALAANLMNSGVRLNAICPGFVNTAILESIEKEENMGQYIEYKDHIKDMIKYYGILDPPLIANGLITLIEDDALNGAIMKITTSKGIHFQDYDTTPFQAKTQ

Compound: O=C(c1cnc2c(ccn2-c2ccc(C3(C(=O)O)CC3)cc2)c1)N1CCC(F)(F)CC1 [MF-DH-427, 1-(4-(5-(4,4-difluoropiperidine-1-carbonyl)-1H-pyrrolo[2,3-b]pyridin-1-yl)phenyl)cyclopropane-1-carboxylic acid]
- IC50: 100 to 1000 nM

Compound: O=C(NC1(C(=O)O)CC1)c1ccc(-n2ccc3cc(C(=O)N4CCC(F)(F)CC4)cnc32)cn1 [MF-DH-430, 1-(5-(5-(4,4-difluoropiperidine-1-carbonyl)-1H-pyrrolo[2,3-b]pyridin-1-yl)picolinamido)cyclopropane-1-carboxylic acid]
- IC50: < 100 nM

Compound: CC(C)(CC(=O)O)NC(=O)c1ccc(-n2ccc3cc(C(=O)N4CCC(F)(F)CC4)cnc32)cc1 [MF-DH-431]
- IC50: < 100 nM

Compound: O=C(O)[C@@H]1CCCN1C(=O)c1ccc(-n2ccc3cc(C(=O)N4CCC(F)(F)CC4)cnc32)cc1 [MF-DH-432]
- IC50: < 100 nM

Compound: O=C(O)c1ccc(-n2ccc3cc(C(=O)N4CCCCC4)cnc32)cc1 [MF-DH-433, 4-(5-(piperidine-1-carbonyl)-1H-pyrrolo[2,3-b]pyridin-1-yl)benzoic acid]
- IC50: < 100 nM

Compound: N#Cc1ccc(-n2ccc3cc(C(=O)N4CCC(F)(F)CC4)cnc32)cc1 [MF-DH-439]
- IC50: < 100 nM

Compound: N#Cc1ccc(-n2ccc3cc(C(=O)N4CCC(F)(F)CC4)cnc32)nc1 [MF-DH-440]
- IC50: 100 to 1000 nM

Compound: N#Cc1ccc(-n2ccc3cc(C(=O)N4CCC(F)(F)CC4)cnc32)cc1O [MF-DH-441]
- IC50: < 100 nM

Compound: N#Cc1ccc(-n2cnc3cc(C(=O)N4CCC(F)(F)CC4)cnc32)cc1 [MF-DH-442]
- IC50: < 100 nM

Compound: N#Cc1ccc(-n2cnc3cc(C(=O)N4CC(Cl)C4)cnc32)cc1 [MF-DH-443]
- IC50: < 100 nM

Compound: CC(C)(O)CCc1cc2cc(C(=O)N3CCC(F)(F)CC3)cnc2n1-c1ccc(C#N)cc1 [MF-DH-444, 4-(5-(4,4-difluoropiperidine-1-carbonyl)-2-(3-hydroxy-3-methylbutyl)-1H-pyrrolo[2,3-b]pyridin-1-yl)benzonitrile]
- IC50: < 100 nM

Compound: N#Cc1ccc(-n2c(CCC(N)=O)cc3cc(C(=O)N4CCC(F)(F)CC4)cnc32)cc1 [MF-DH-446, 3-(1-(4-cyanophenyl)-5-(4,4-difluoropiperidine-1-carbonyl)-1H-pyrrolo[2,3-b]pyridin-2-yl)propanamide]
- IC50: 100 to 1000 nM

Compound: N#Cc1ccc(-n2ccc3cc(C(=S)N4CCC(F)(F)CC4)cnc32)cc1 [MF-DH-449, 4-(5-(4,4-difluoropiperidine-1-carbonothioyl)-1H-pyrrolo[2,3-b]pyridin-1-yl)benzonitrile]
- IC50: ≥ 1000 nM

Compound: NC(=O)[C@@H]1CCCN1C(=O)c1ccc(-n2ccc3cc(C(=O)N4CCC(F)(F)CC4)cnc32)cc1 [MF-DH-450, (S)-1-(4-(5-(4,4-difluoropiperidine-1-carbonyl)-1H-pyrrolo[2,3-b]pyridin-1-yl)benzoyl)pyrrolidine-2-carboxamide]
- IC50: < 100 nM

Compound: O=C(c1ccc(-n2ccc3cc(C(=O)N4CCC(F)(F)CC4)cnc32)cc1)N(CCO)CCO [MF-DH-451]
- IC50: < 100 nM

Compound: O=C(c1cnc2c(ccn2-c2ccc(-c3noc(=O)[nH]3)nc2)c1)N1CCC(F)(F)CC1 [MF-DH-456, 3-(5-(5-(4,4-difluoropiperidine-1-carbonyl)-1H-pyrrolo[2,3-b]pyridin-1-yl)pyridin-2-yl)-1,2,4-oxadiazol-5(4H)-one]
- IC50: < 100 nM

Compound: N#Cc1ccc(-n2ccc3nc(C(=O)N4CCC(F)CC4)ccc32)cc1 [MF-DH-462, 4-(5-(4-fluoropiperidine-1-carbonyl)-1H-pyrrolo[3,2-b]pyridin-1-yl)benzonitrile]
- IC50: ≥ 1000 nM

Compound: N#Cc1ccc(-n2ccc3cc(C(=O)N4CCC(F)CC4)ncc32)cc1 [MF-DH-463, 4-(5-(4-fluoropiperidine-1-carbonyl)-1H-pyrrolo[2,3-c]pyridin-1-yl)benzonitrile]
- IC50: ≥ 1000 nM

Compound: CC(C)(C#Cc1ccc(-n2ccc3cc(C(=O)N4CCC(F)(F)CC4)cnc32)cn1)S(C)(=O)=O [MF-DH-465, (4,4-difluoropiperidin-1-yl)(1-(6-(3-methyl-3-(methylsulfonyl)but-1-yn-1-yl)pyridin-3-yl)-1H-pyrrolo[2,3-b]pyridin-5-yl)methanone]
- IC50: 100 to 1000 nM

Compound: O=C(NCCO)c1cccc(-n2ccc3cc(C(=O)N4CCC(F)(F)CC4)cnc32)c1 [MF-DH-468, 3-(5-(4,4-difluoropiperidine-1-carbonyl)-1H-pyrrolo[2,3-b]pyridin-1-yl)-N-(2-hydroxyethyl)benzamide]
- IC50: < 100 nM

Compound: O=C(O)c1ccc(-n2ccc3cc(C(=O)N4CCC(F)(F)CC4)cnc32)nc1 [MF-DH-469]
- IC50: < 100 nM

Compound: CC(C)(O)C#Cc1nc2cc(C(=O)N3CCC(F)(F)CC3)cnc2n1-c1ccc(C#N)cc1 [MF-DH-476, 4-(6-(4,4-difluoropiperidine-1-carbonyl)-2-(3-hydroxy-3-methylbut-1-yn-1-yl)-3H-imidazo[4,5-b]pyridin-3-yl)benzonitrile]
- IC50: 100 to 1000 nM

Compound: CCNC(=O)c1ccc(-n2ccc3cc(C(=O)N4CCC(F)(F)CC4)cnc32)nc1 [MF-DH-477, 6-(5-(4,4-difluoropiperidine-1-carbonyl)-1H-pyrrolo[2,3-b]pyridin-1-yl)-N-ethylnicotinamide]
- IC50: < 100 nM

Compound: NC[C@@H]1CN(c2ccc(-n3ccc4cc(C(=O)N5CCC(F)(F)CC5)cnc43)cn2)C(=O)O1 [MF-DH-478]
- IC50: < 100 nM

Compound: NC[C@@H]1CN(c2cncc(-n3ccc4cc(C(=O)N5CCC(F)(F)CC5)cnc43)c2)C(=O)O1 [MF-DH-479]
- IC50: < 100 nM

Compound: CS(=O)(=O)NCCNC(=O)c1cccc(-n2ccc3cc(C(=O)N4CCC(F)(F)CC4)cnc32)c1 [MF-DH-480, 3-(5-(4,4-difluoropiperidine-1-carbonyl)-1H-pyrrolo[2,3-b]pyridin-1-yl)-N-(2-(methylsulfonamido)ethyl)benzamide]
- IC50: < 100 nM

Compound: O=C(c1cnc2c(ccn2-c2cncc(NS(=O)(=O)C3CC3)c2)c1)N1CCC(F)(F)CC1 [MF-DH-484, N-(5-(5-(4,4-difluoropiperidine-1-carbonyl)-1H-pyrrolo[2,3-b]pyridin-1-yl)pyridin-3-yl)cyclopropanesulfonamide]
- IC50: < 100 nM

Compound: NC(=O)[C@@H]1CCCN1C(=O)c1cccc(-n2ccc3cc(C(=O)N4CCC(F)(F)CC4)cnc32)c1 [MF-DH-486, (S)-1-(3-(5-(4,4-difluoropiperidine-1-carbonyl)-1H-pyrrolo[2,3-b]pyridin-1-yl)benzoyl)pyrrolidine-2-carboxamide]
- IC50: < 100 nM

Compound: CC(C)(C(N)=O)c1cncc(-n2ccc3cc(C(=O)N4CCC(F)(F)CC4)cnc32)c1 [MF-DH-487, 2-(5-(5-(4,4-difluoropiperidine-1-carbonyl)-1H-pyrrolo[2,3-b]pyridin-1-yl)pyridin-3-yl)-2-methylpropanamide]
- IC50: < 100 nM

Compound: O=C(O)[C@@H]1CCCN1C(=O)c1cccc(-n2ccc3cc(C(=O)N4CCC(F)(F)CC4)cnc32)c1 [MF-DH-489, (3-(5-(4,4-difluoropiperidine-1-carbonyl)-1H-pyrrolo[2,3-b]pyridin-1-yl)benzoyl)-L-proline]
- IC50: 100 to 1000 nM

Compound: NS(=O)(=O)c1cccc(-n2ccc3cc(C(=O)N4CCC(F)(F)CC4)cnc32)c1 [MF-DH-495]
- IC50: < 100 nM

Compound: NS(=O)(=O)c1ccc(-n2ccc3cc(C(=O)N4CCC(F)(F)CC4)cnc32)cc1 [MF-DH-496]
- IC50: < 100 nM

Compound: O=C(c1cnc2c(ccn2-c2cccc(C(=O)N3CCS(=O)(=O)C3)c2)c1)N1CCC(F)(F)CC1 [MF-DH-497, (4,4-difluoropiperidin-1-yl)(1-(3-(1,1-dioxidothiazolidine-3-carbonyl)phenyl)-1H-pyrrolo[2,3-b]pyridin-5-yl)methanone]
- IC50: < 100 nM
